Patent publication US20090053721A1, “VOLTAGE-GATED ION CHANNEL MUTANTS FOR USE IN IDENTIFYING ION CHANNEL MODULATING COMPOUNDS” (CARDIOME PHARMA CORP., priority 2007, published 2009)
Where a name gives a salt, the structure may show the parent alone.

How the values were obtained:
Assay in all cases: Whole-cell patch-clamp block of mutant Kv1.5 current in HEK293 cells
Type in all cases: cell-based
[1] = biological target: T1, Kv1.5 I508L mutant channel (Homo sapiens, UniProt P22460, I508L)
T1 construct: subcloned as a fragment back into full-length Kv1.5; expressed in transfected cells; host or cells: HEK293, transient transfection
T1 sequence (P22460 whole entry I508L, the tested form may be a part): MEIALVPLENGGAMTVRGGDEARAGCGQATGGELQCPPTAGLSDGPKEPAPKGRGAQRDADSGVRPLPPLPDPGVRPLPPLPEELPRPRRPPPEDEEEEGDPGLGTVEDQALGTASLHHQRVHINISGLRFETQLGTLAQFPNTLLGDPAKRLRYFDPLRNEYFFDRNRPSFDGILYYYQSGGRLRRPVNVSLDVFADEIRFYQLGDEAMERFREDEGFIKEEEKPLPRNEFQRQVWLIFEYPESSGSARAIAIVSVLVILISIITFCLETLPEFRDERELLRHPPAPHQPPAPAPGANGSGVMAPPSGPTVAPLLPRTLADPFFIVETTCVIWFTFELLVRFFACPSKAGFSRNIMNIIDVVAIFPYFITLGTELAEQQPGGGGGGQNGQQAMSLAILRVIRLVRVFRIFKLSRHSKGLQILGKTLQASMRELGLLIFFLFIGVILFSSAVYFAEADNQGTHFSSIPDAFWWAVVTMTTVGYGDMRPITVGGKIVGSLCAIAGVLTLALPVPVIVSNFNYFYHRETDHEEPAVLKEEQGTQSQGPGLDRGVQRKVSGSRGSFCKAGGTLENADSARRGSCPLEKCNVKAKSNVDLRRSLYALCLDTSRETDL
Protocol: (§1) Stable lines of HEK293 cells expressing Kv1.5, or transient transfection of mutant Kv1.5 channels were used in all experiments. […] (Coralville, Iowa, USA), and mutants were generated using the Stratagene Quikchange kit (Stratagene, Calif., USA). […] This was added to the cells for overnight incubation after washing the media with 900 μl of MEM with 10% FBS. […] Media contained 10% bovine serum and 0.5 mg/ml geneticin for stable lines. On the day before recording, stably-expressing cells were washed with MEM, treated with trypsin/EGTA for one minute and plated on 25 mm^2 coverslips. All cell culture supplies were obtained from Invitrogen (Mississauga, ON, Canada). Control bath solution contained (in mM): 5 KCl, 135 NaCl, 2.8 sodium acetate, 1 MgCl2, 10 HEPES and 1 CaCl2, adjusted to pH 7.4 with NaOH. Patch pipettes contained (in mM): 130 KCl, 5 EGTA, 1 MgCl2, 10 HEPES, 4 Na2ATP, and 0.1 GTP, adjusted to pH 7.2 with KOH. All chemicals used to make solutions were obtained from Sigma-Aldrich (Mississauga, ON, Canada). […] (Vancouver, BC, Canada) and prepared as a stock solution (50 mM) in H2O. […] DMSO concentrations for either drug never exceeded 0.1% v/v in the final experimental solutions. Coverslips with adherent cells plated on the surface were placed in a superfusion chamber (volume 300 μl) containing the control bath solution at 22° C. Whole-cell current recording and analysis were carried out using an Axopatch 200B amplifier and pClamp10 software (Axon Instruments, CA, USA). Patch electrodes were pulled from thin-walled borosilicate glass (World Precision Instruments, FL, USA) on a horizontal micropipette puller (Sutter Instruments, CA, USA). […] Analogue capacity compensation and 80% series resistance compensation were used during whole cell measurements. Membrane potentials were not corrected for junction potentials that arise between the pipette and bath solution. […] Data were sampled at 10-20 kHz and filtered at 5 to 10 kHz. […] Data are represented as mean±SE unless otherwise specified. For significance of differences, * represents p<0.05, ** p<0.01; statistical analysis was conducted using Student's t-test (unpaired). Clampfit software (Axon Instruments, CA, USA) was used to analyze current traces. Data from each test pulse (currents in the presence of drug) were normalized to control test pulse currents obtained before drug exposure. […] IC50 is the concentration producing half-maximal inhibition; and n is the Hill coefficient.

[2] = biological target: T2, Kv1.5 P532L mutant channel (Homo sapiens, UniProt P22460, P532L)
T2 construct: subcloned as a fragment back into full-length Kv1.5; expressed in transfected cells; host or cells: HEK293, transient transfection
T2 sequence (P22460 whole entry P532L, the tested form may be a part): as the sequence (P22460 whole entry I508L, the tested form may be a part) above, with L508I, P532L counted along it
Protocol: as §1

[3] = biological target: T3, Kv1.5 A501V mutant channel (Homo sapiens, UniProt P22460, A501V)
T3 construct: subcloned as a fragment back into full-length Kv1.5; expressed in transfected cells; host or cells: HEK293, transient transfection
T3 sequence (P22460 whole entry A501V, the tested form may be a part): as the sequence (P22460 whole entry I508L, the tested form may be a part) above, with A501V, L508I counted along it
Protocol: as §1

[4] = biological target: T4, Kv1.5 I508Y mutant channel (Homo sapiens, UniProt P22460, I508Y)
T4 construct: subcloned as a fragment back into full-length Kv1.5; expressed in transfected cells; host or cells: HEK293, transient transfection
T4 sequence (P22460 whole entry I508Y, the tested form may be a part): as the sequence (P22460 whole entry I508L, the tested form may be a part) above, with L508Y counted along it
Protocol: as §1

[5] = biological target: T5, Kv1.5 C500A mutant channel (Homo sapiens, UniProt P22460, C500A)
T5 construct: subcloned as a fragment back into full-length Kv1.5; expressed in transfected cells; host or cells: HEK293, transient transfection
T5 sequence (P22460 whole entry C500A, the tested form may be a part): as the sequence (P22460 whole entry I508L, the tested form may be a part) above, with C500A, L508I counted along it
Protocol: as §1

[6] = biological target: T6, Kv1.5 T480S mutant channel (Homo sapiens, UniProt P22460, T480S)
T6 construct: subcloned as a fragment back into full-length Kv1.5; expressed in transfected cells; host or cells: HEK293, transient transfection
T6 sequence (P22460 whole entry T480S, the tested form may be a part): as the sequence (P22460 whole entry I508L, the tested form may be a part) above, with T480S, L508I counted along it
Protocol: as §1

In the case of `COc1ccc(CCO[C@@H]2CCCC[C@H]2N2CC[C@@H](O)C2)cc1OC` [Vernakalant, 3-Pyrrolidinol, 1-[(1R,2R)-2-[2-(3,4-dimethoxyphenyl)ethoxy]cyclohexyl]-,hydrochloride, (3R)], the Hill coefficient [1] is reported as 1.00, the “Fractional Block ± SEM” value ([1]; 10 μM vernakalant) is reported as 0.38 ± 0.05 and the Hill coefficient [2] is reported as 0.96. For the same compound, the “Fractional Block ± SEM” value ([2]; 10 μM vernakalant) was 0.26 ± 0.03, the Hill coefficient [3] was 0.85 and the “Fractional Block ± SEM” value ([3]; 10 μM vernakalant) was 0.69 ± 0.04. The Hill coefficient [4] was 1.46, the “Fractional Block ± SEM” value ([4]; 10 μM vernakalant) was 0.21 ± 0.03 and the Hill coefficient [5] was 0.95. The “Fractional Block ± SEM” value ([5]; 10 μM vernakalant) was 0.21 ± 0.04, the Hill coefficient [6] was 0.64 and the “Fractional Block ± SEM” value ([6]; 10 μM vernakalant) was 0.25 ± 0.07.
